Reference: publication PMC8071358, “Targeting of the Essential acpP, ftsZ, and rne Genes in Carbapenem-Resistant Acinetobacter baumannii by Antisense PNA Precision Antibacterials” (Biomedicines, 2021)
Values after ≈ are worked out from the molar mass of the structure shown. {(KFF)3K-eg1} = H-(KFF)3K peptide (K lysine, F phenylalanine) with eg1 linker (8-amino-3,6-dioxaoctanoyl), on the PNA N terminus (5' end); {NH2} = C-terminal amide

Legend:
[1] = system: A. baumannii ATCC 19606 type strain; assay: Antibiotic MIC (CLSI microdilution or gradient strips); assay type: cell-based, Acinetobacter baumannii; settings: for MIC: Acinetobacter baumannii, ATCC19606
Description: (§1) All minimum inhibitory concentration (MIC) determinations for antibiotics were performed by the standard microdilution method in 96-well microplate (Thermo-Scientific, Roskilde, Denmark) or by gradient test strips (Liofilchem, Italy) according to the Clinical and Laboratory Standards Institute guidelines. Escherichia coli ATCC 25922 was used as control.

[2] = system: CRAB strain AC1; assay: as above; assay type: cell-based, Acinetobacter baumannii; settings: for MIC: Acinetobacter baumannii, AC1, wound isolate
Description: as §1

[3] = system: CRAB strain AC2; assay: as above; assay type: cell-based, Acinetobacter baumannii; settings: wound isolate, CLSI; for MIC: Acinetobacter baumannii, AC2, read-out: MIC, AC2
Description: as §1

[4] = system: CRAB strain AC3; assay: as above; assay type: cell-based, Acinetobacter baumannii; settings: for MIC: Acinetobacter baumannii, AC3, sputum isolate
Description: as §1

[5] = system: CRAB strain AC44; assay: as above; assay type: cell-based, Acinetobacter baumannii; settings: for MIC: Acinetobacter baumannii, AC44, urine isolate
Description: as §1

[6] = system: CRAB strain AC46; assay: as above; assay type: cell-based, Acinetobacter baumannii; settings: sputum isolate, CLSI; for MIC: Acinetobacter baumannii, AC46, read-out: MIC, AC46
Description: as §1

[7] = system: CRAB strain AC4; assay: as above; assay type: cell-based, Acinetobacter baumannii; settings: trachea isolate, CLSI; for MIC: Acinetobacter baumannii, AC4, read-out: MIC, AC4
Description: as §1

[8] = system: CRAB strain AC5; assay: as above; assay type: cell-based, Acinetobacter baumannii; settings: for MIC: Acinetobacter baumannii, AC5, urine isolate
Description: as §1

[9] = system: CRAB strain AC8; assay: as above; assay type: cell-based, Acinetobacter baumannii; settings: sputum isolate, CLSI; for MIC: Acinetobacter baumannii, AC8, read-out: MIC, AC8
Description: as §1

[10] = system: CRAB strain AC9; assay: as above; assay type: cell-based, Acinetobacter baumannii; settings: CSF isolate, CLSI; for MIC: Acinetobacter baumannii, AC9, read-out: MIC, AC9
Description: as §1

[11] = system: CRAB strain SSI1104; assay: as above; assay type: cell-based, Acinetobacter baumannii; settings: for MIC: Acinetobacter baumannii, SSI1104
Description: as §1

[12] = system: CRAB strain AC6; assay: as above; assay type: cell-based, Acinetobacter baumannii; settings: blood isolate, CLSI; for MIC: Acinetobacter baumannii, AC6, read-out: MIC, AC6
Description: as §1, with “guidelines.” for “guidelines. Escherichia coli ATCC 25922 was used as control.”

[13] = system: CRAB strain AC7; assay: as above; assay type: cell-based, Acinetobacter baumannii; settings: blood isolate, CLSI; for MIC: Acinetobacter baumannii, AC7, read-out: MIC, AC7
Description: as §1, with “guidelines.” for “guidelines. Escherichia coli ATCC 25922 was used as control.”

[14] = system: A. baumannii ATCC 19606; assay: BPP-PNA MIC, broth microdilution; assay type: cell-based, Acinetobacter baumannii; settings: 37 °C, 18 h
Description: (§2) MIC values were determined by broth microdilution according to standard protocols with a few modifications. An overnight bacterial cell culture was diluted to approximately 5 × 10^5 CFU/mL in non-cation-adjusted Muller Hinton Broth (MHB). Then, 180 µL bacterial solutions were dispensed into a low-bind 96-well plate (Thermo-Scientific, Roskilde, Denmark) along with 20 µL of BPP-PNA compound (BPP-PNA was serially diluted 2-fold from 16 to 0.5 µM in a 96-well plate). The plate was incubated in a Tecan Genios plate reader (GMI, Minnesota, Ramsey, USA) at 37 °C for 18 h with linear shaking, OD was measured every 20 min at 595 nm. […] The minimum bactericidal concentration (MBC) values were determined by plating 10 µL samples from the wells with no visible turbidity onto Mueller–Hinton agar plates. The MBC is determined the lowest concentration of BPP-PNA that reduces the viability of the initial bacterial inoculum by ≥99.9% (3-log reduction in CFU/mL). A minimum of two independent experiments (biological replicates) of the assay were conducted, and two technical replicates were used in each experiment for each bacterium, compound, and concentration.

[15] = system: CRAB strain AC2; assay: BPP-PNA MIC, broth microdilution; assay type: cell-based, Acinetobacter baumannii; settings: 37 °C, 18 h
Description: as §2

[16] = system: CRAB strain AC44; assay: BPP-PNA MIC, broth microdilution; assay type: cell-based, Acinetobacter baumannii; settings: 37 °C, 18 h
Description: as §2

[17] = system: A. baumannii SSI1104; assay: BPP-PNA MIC, broth microdilution; assay type: cell-based, Acinetobacter baumannii; settings: 37 °C, 18 h
Description: as §2, with “An overnight bacterial cell culture was diluted to approximately 5 × 10^5 CFU/mL in non-cation-adjusted Muller Hinton Broth (MHB).” left out

[18] = system: CRAB strain AC46; assay: BPP-PNA MIC, broth microdilution; assay type: cell-based, Acinetobacter baumannii; settings: 37 °C, 18 h
Description: as §2, with “An overnight bacterial cell culture was diluted to approximately 5 × 10^5 CFU/mL in non-cation-adjusted Muller Hinton Broth (MHB).” left out

[19] = system: P. aeruginosa (PAO1); assay: BPP-PNA MIC, broth microdilution; assay type: cell-based, Pseudomonas aeruginosa; settings: non-target species; MHB without cation (Oxoid)
Description: as §2

[20] = system: E. coli K-12 MG1655; assay: BPP-PNA MIC, broth microdilution; assay type: cell-based, Escherichia coli; settings: non-target species; MHB without cation (Oxoid)
Description: as §2

[21] = system: CRAB strains; assay: BPP-PNA MIC/MBC summarised over the panel of strains; assay type: cell-based, Acinetobacter baumannii
Description: as §2

[22] = system: acpP mRNA in CRAB AC44 strain; assay: Real-time RT-PCR of target mRNA; assay type: cell-based, Acinetobacter baumannii; settings: AC44, 1 h treatment, normalised to 16S rRNA, against untreated control
Description: Real time RT-PCR was used to determine the relative expression level of the target gene upon treatment with match BPP-PNA compared to mismatch and untreated controls. The primers for q-PCR were designed to match conserved gene sequences using the AlleleID7 software (Premier Biosoft, San Francisco, CA, USA) (Table S6). Additionally, for more accurate expression of the genes at treatment and untreated conditions, the efficacy of target gene and internal controls primers was calculated by using three consecutive dilutions of the sample cDNA and drawing a standard curve through the slope of the line. […] Statistical analysis was carried out on the gene expression levels normalized to the chosen reference gene (16S rRNA) through −∆Ct analysis. The relative expression of each gene was determined by the 2^−ΔΔCT method. We used the GenEx standard (NormFinder and GeNorm) software (bioMCC, Germany) for analyzing the data.
An overnight culture of bacteria was diluted 1:100 in MHB medium and was grown with shaking (160 rpm) at 37 °C to reach the OD595 = 0.2. Then, the bacterial culture was treated with different concentrations of BPP-PNA for 1 h and the bacterial cells were harvested by centrifugation and the cell pellet used for RNA extraction.
Total RNA was isolated using the GeneJET RNA purification kit (ThermoFisher Scientific, Roskilde, Denmark) following the manufacturer’s protocol. RNA samples were treated with DNase for 30 min at 37 °C (Turbo DNA-free kit Ambion/Applied Biosystems, Carlsbad, CA, USA) and then incubated at 72 °C for 5 min to inactivate the DNase. The genomic DNA (gDNA) contamination was checked by polymerase chain reaction (PCR). RNA concentrations were determined by Nanodrop spectrophotometry at 260 nm and purity was checked by determining the absorption ratios at 260/280 nm. Total RNA (0.5 μg) was reverse-transcribed to yield cDNA as template for real-time quantitative PCR using the Quanti Tect reverse transcription kit (Qiagen, Copenhagen, Denmark). The cDNA was diluted 1:50 and used as a template in the reaction. […]

[23] = system: HepG2 hepatocytes; assay: HepG2 cell toxicity (CellTiter-Glo, ATP); assay type: cell-based; settings: 10 µM, ATP level
Description: The cell toxicity of selected BPP-PNAs was determined using HepG2 hepatocytes grown in DMEM (low glucose) medium supplemented with 100 U/mL penicillin, 100 µg/mL streptomycin, 1% glutamax, and 10% fetal bovine serum (FBS) (Thermofisher Scientific, Roskilde, Denmark), at 37 °C with 5% CO2. Then, 7000–10,000 cells were seeded in each well of a 96-well plate. After 48 h, the BPP-PNAs were added (six replicates for each concentration), followed by overnight incubation. Total amount of adenosine triphosphate (ATP) was used as a measure of cell viability, according to the CellTiter-Glo luminescent cell viability assay (Promega, Madison, WI, USA) kit. BPP-PNAs concentrations ranged from 2.5 to 20 µM. Potassium dichromate (100 µM) was used as a positive control.

[24] = Sigma MHB medium without cation, ~5 × 10^5 CFU/mL, OD595 < 0.1
[25] = Sigma MHB medium without cation
[26] = Oxoid MHB medium, cation adjusted

Molecule | MIC [1] [µg/mL] | MIC [2] [µg/mL] | MIC [3] [µg/mL] | MIC [4] [µg/mL] | MIC [5] [µg/mL] | MIC [6] [µg/mL] | MIC [7] [µg/mL] | MIC [8] [µg/mL] | MIC [9] [µg/mL] | MIC [10] [µg/mL] | MIC [11] [µg/mL] | MIC [12] [µg/mL] | MIC [13] [µg/mL] | MIC, ATCC 19606 ([14]; MHB without cation (Oxoid)) [µM] | MIC, ATCC 19606 [14, 24] [µM] | MIC, AC2 [15, 25] [µM] | MIC, AC44 [16, 25] [µM] | MIC, SSI 1104 [17, 25] [µM] | MIC, AC46 [18, 25] [µM] | also measured
C[C@@H](O)[C@H]1C(=O)N2C(C(=O)O)=C(S[C@@H]3CN[C@H](C(=O)N(C)C)C3)[C@H](C)[C@H]12 [Meropenem] | 1 (≈ 2.61 µM) | 4 (≈ 10.4 µM) | 16 (≈ 41.7 µM) | 4 (≈ 10.4 µM) | 16 (≈ 41.7 µM) | 16 (≈ 41.7 µM) | 16 (≈ 41.7 µM) | 16 (≈ 41.7 µM) | 16 (≈ 41.7 µM) | 16 (≈ 41.7 µM) | > 16 | 16 (≈ 41.7 µM) | 16 (≈ 41.7 µM) |  |  |  |  |  |  | 
CN(C)c1cc(NC(=O)CNC(C)(C)C)c(O)c2c1C[C@H]1C[C@H]3[C@H](N(C)C)C(O)=C(C(N)=O)C(=O)[C@@]3(O)C(O)=C1C2=O [Tigecycline] | 0.5 (≈ 0.854 µM) | 0.5 (≈ 0.854 µM) | 1 (≈ 1.71 µM) | 0.5 (≈ 0.854 µM) | 1 (≈ 1.71 µM) | 0.5 (≈ 0.854 µM) | 1 (≈ 1.71 µM) | 1 (≈ 1.71 µM) | 1 (≈ 1.71 µM) | 1 (≈ 1.71 µM) | 1 (≈ 1.71 µM) | 1 (≈ 1.71 µM) | 1 (≈ 1.71 µM) |  |  |  |  |  |  | 
Colistin |  |  |  |  |  |  |  |  |  |  |  |  |  |  |  |  |  |  |  | MIC, ATCC 19606 [1]: 1 µg/mL; MIC, AC1 ([2]; wound isolate): 1 µg/mL; MIC, AC2 [3]: 1 µg/mL; MIC, AC3 ([4]; sputum isolate): 1 µg/mL; MIC, AC44 ([5]; urine isolate): 0.5 µg/mL; MIC, AC46 [6]: 1 µg/mL; MIC, AC4 [7]: 1 µg/mL; MIC, AC5 ([8]; urine isolate): 1 µg/mL; MIC, AC8 [9]: 1 µg/mL; MIC, AC9 [10]: 1 µg/mL; MIC, SSI 1104 [11]: 1 µg/mL; MIC, AC6 [12]: 1 µg/mL; MIC, AC7 [13]: 1 µg/mL
H-(KFF)3K-eg1-ATATCGCTCAC-NH2 (all peptide nucleic acid (PNA), 5' {(KFF)3K-eg1}, 3' {NH2}) [PNA 5652, anti-acpP peptide-PNA conjugate, match, +40 to +50] |  |  |  |  |  |  |  |  |  |  |  |  |  | 4 | 4 | 4 | 4 | 4 | 4 | MIC, SSI 1104 ([17]; MHB without cation (Oxoid)): 4 µM; MIC, P. aeruginosa (PAO1) [19]: 16 µM; MIC, E. coli K-12 MG1655 [20]: 16 µM; MIC (complete growth inhibition) over the CRAB strains tested ([21]; several A. baumannii strains): 4 µM
H-(KFF)3K-eg1-TGACTTGTCAC-NH2 (all peptide nucleic acid (PNA), 5' {(KFF)3K-eg1}, 3' {NH2}) [PNA 5640, anti-acpP mismatch control of 5639] |  |  |  |  |  |  |  |  |  |  |  |  |  |  | 4 | 4 | 4 | 4 | 4 | MIC, ATCC 19606 [14, 26]: 4 µM; MIC, AC2 [15, 26]: 4 µM; MIC, AC44 [16, 26]: 4 µM; MIC, SSI 1104 [17, 26]: 4 µM; MIC, AC46 [18, 26]: 4 µM; reduction in the level of the acpP mRNA [22]: 4 fold
H-(R-Ahx-R)4-Ahx-GAGGCCATGAC-NH2 (N-terminal (R-Ahx-R)4-Ahx peptide, C-terminal amide, backbone not given here, further chemistry not given here) [PNA 5613, anti-ftsZ (R-Ahx-R)4-Ahx-PNA, match] |  |  |  |  |  |  |  |  |  |  |  |  |  | >16 |  |  |  |  |  | MIC, AC44 ([16]; MHB without cation (Oxoid)): >16 µM; MIC ([21]; text on Table 2, (R-Ahx-R)4 BPP): > 16 µM; toxicity in HepG2 [23]: very significant toxicity
